Measurements: patent US10132816B2, “Measurement of FGF21 as a biomarker of fructose metabolism” (Beth Israel Deaconess Medical Center, Inc., priority 2013, dated 2018)

Tests used:
[1] = fructose: at first pass; cited from earlier work
circulating FGF21 levels = assay: oral fructose load versus oral glucose load, circulating FGF21 in human subjects; format: in vivo; details: two hours after ingestion of 75 grams of fructose, lean healthy subjects
From the text: FIGS. 2A-2B show plasma FGF21 levels: FIG. 2A) following ingestion of 75 grams glucose (n=8) and FIG. 2B) Plasma FGF21 levels following ingestion of 75 grams fructose in human subjects (n=10).
To test whether fructose ingestion can acutely regulate circulating FGF21 in human subjects, we compared the effects of administering a 75 gram oral glucose load versus a 75 gram oral fructose load on circulating FGF21 levels in lean healthy subjects. Ingestion of glucose has no effect on FGF21 levels (FIG. 2A and ^14). In contrast, circulating FGF21 levels increase ˜4-fold two hours after ingestion of 75 grams of fructose (FIG. 2B). Thus oral fructose ingestion, but not glucose ingestion acutely and robustly increases circulating FGF21 levels. To our knowledge FGF21 is the only known measurable circulating biomarker that specifically assesses an individual's acute metabolic response to fructose ingestion.

[2] = tested on: hepatic ChREBP-β, ChREBP transcriptional targets and circulating FGF21; assay: mice fed chow, 60% dextrose or 60% fructose diets for 7 weeks: hepatic mRNA expression and circulating FGF21; format: in vivo; details: 7 weeks of 60% diet
From the text: FIGS. 1A-1C are bar graphs of hepatic mRNA expression (FIG. 1A, 1B) and circulating (FIG. 1C) FGF21 levels in 15-week-old mice fed chow, 60% dextrose, or 60% fructose diets for 7 weeks, sacrificed in the ad lib fed state. * P<0.05 compared to all other groups. n=5-7 per group.
The FGF21 gene contains a ChREBP binding site in its promoter and exposure of primary hepatocytes to high glucose concentrations increases FGF21 expression in a ChREBP dependent manner^37,38. To determine whether ChREBP might regulate circulating FGF21 levels we fed mice chow, 60% dextrose, or 60% fructose diets. […] Thus, we hypothesized that the increase in circulating FGF21 levels associated with features of the metabolic syndrome might be due to activation of hepatic ChREBP and that fructose consumption might be important for this.

O=C(CO)[C@@H](O)[C@H](O)[C@H](O)CO [fructose]
share of an oral load taken up / extracted by the liver [1]: ~100% | increase of circulating FGF21 levels (circulating FGF21 levels): ~4 fold | circulating FGF21 levels [2]: highest levels | effect of fructose on hepatic ChREBP-β expression relative to that of dextrose [2]: ~3 fold | expression of ChREBP transcriptional targets (Pklr, Fasn, FGF21) in liver [2]: greater increase | hepatic expression of ChREBP-β compared to chow ([2]; ad lib fed state): markedly increases
